Experimental data as given in ChEMBL document CHEMBL2073775, “Caco-2 permeability, P-glycoprotein transport ratios and brain penetration of heterocyclic drugs” (Int J Pharm, 2003).

What follows are molecules tested against ATP-dependent translocase ABCB1 (Homo sapiens, UniProt P08183) (assay: TP_TRANSPORTER: transepithelial transport in Caco-2 cells).
Type: functional, cell-based

Sequence of ATP-dependent translocase ABCB1 (P08183 whole entry): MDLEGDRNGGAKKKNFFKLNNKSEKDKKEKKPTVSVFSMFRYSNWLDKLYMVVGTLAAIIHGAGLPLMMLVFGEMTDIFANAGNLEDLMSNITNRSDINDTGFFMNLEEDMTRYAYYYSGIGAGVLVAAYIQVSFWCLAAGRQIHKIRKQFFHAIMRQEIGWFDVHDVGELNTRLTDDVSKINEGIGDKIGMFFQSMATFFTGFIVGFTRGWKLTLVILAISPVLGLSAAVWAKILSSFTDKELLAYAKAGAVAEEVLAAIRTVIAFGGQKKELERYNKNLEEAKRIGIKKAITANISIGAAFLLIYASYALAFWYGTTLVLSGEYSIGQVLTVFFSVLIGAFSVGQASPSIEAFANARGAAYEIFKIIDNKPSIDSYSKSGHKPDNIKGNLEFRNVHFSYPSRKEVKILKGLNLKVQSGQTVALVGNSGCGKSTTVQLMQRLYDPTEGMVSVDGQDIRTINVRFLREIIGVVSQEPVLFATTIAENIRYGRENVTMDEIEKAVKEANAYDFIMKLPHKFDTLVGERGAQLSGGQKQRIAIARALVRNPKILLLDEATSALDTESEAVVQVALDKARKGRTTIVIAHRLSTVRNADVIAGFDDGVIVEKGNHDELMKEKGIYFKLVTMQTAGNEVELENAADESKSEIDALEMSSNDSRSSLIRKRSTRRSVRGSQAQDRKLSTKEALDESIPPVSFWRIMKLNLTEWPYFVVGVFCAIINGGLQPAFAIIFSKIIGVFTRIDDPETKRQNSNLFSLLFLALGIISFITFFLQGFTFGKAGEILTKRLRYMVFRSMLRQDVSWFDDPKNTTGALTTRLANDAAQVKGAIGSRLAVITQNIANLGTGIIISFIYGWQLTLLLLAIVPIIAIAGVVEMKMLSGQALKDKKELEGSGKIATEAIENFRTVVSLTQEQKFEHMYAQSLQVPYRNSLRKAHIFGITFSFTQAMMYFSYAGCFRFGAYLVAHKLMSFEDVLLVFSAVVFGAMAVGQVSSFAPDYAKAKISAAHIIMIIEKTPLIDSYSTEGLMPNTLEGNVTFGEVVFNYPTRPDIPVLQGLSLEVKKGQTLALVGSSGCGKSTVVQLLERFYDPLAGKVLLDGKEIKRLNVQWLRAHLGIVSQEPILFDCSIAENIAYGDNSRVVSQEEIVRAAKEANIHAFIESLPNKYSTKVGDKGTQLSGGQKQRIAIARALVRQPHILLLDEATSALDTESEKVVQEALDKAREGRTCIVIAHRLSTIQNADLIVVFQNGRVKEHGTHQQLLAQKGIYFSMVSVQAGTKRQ

| Activity | Molecule |
| --- | --- |
| is not a substrate [-] | CC(=O)Nc1ccc(O)cc1 [ACETAMINOPHEN] |
| is not a substrate [-] | CC(C)Cc1ccc(C(C)C(=O)O)cc1 (configuration not stated) [IBUPROFEN] |
| substrate [+] | Clc1cccc(Cl)c1N=C1NCCN1 [CLONIDINE] |
| substrate [+] | CC1(C)CC(=O)N(CCCCN2CCN(c3ncccn3)CC2)C(=O)C1O.Cl (configuration not stated) |
| substrate [+] | C=CCC(N)c1ccccc1-c1noc2ccccc12.Cl (single isomer, unassigned; (-)) |
| substrate [+] | CS(=O)(=O)O.O=C(CCCN1CCC(=C(c2ccc(F)cc2)c2ccc(F)cc2)CC1)N1CCCC1 |
| substrate [+] | CN1CC2c3ccccc3Oc3ccc(Cl)cc3C2C1.O=C(O)/C=C\C(=O)O (racemic) [ASENAPINE MALEATE] |
| is not a substrate [-] | PEG 4000 |
| is not a substrate [-] | COc1cc2cc(C3=NNC(=O)CC3C)sc2cc1OC (configuration not stated) |
| substrate [+] | CN1CCC(=C(c2ccc(F)cc2)c2cc(Cl)cs2)CC1 |
| is not a substrate [-] | CNC(=C[N+](=O)[O-])NCCSCc1ccc(CN(C)C)o1 [RANITIDINE] |
| substrate [+] | CC1(C)CC(=O)N(CCCCN2CCN(c3ncccn3)CC2)C(=O)C1.Cl [GEPIRONE HYDROCHLORIDE] |
| is not a substrate [-] | COc1ccc2c(c1)c(CC(=O)O)c(C)n2C(=O)c1ccc(Cl)cc1 [INDOMETHACIN] |
| substrate [+] | O=C(O)/C=C/C(=O)O.O=C1CCCN1CCCCN1CCN(c2cc(C(F)(F)F)ccn2)CC1 |
| is not a substrate [-] | NC(=O)N1c2ccccc2C=Cc2ccccc21 [CARBAMAZEPINE] |
| is not a substrate [-] | CC(=O)Oc1ccccc1C(=O)O [ASPIRIN] |
| is not a substrate [-] | OC[C@@H](O)[C@@H](O)[C@H](O)[C@H](O)CO [MANNITOL] |

| Molecule | Activity |
| --- | --- |
| Cl.FC(F)(F)c1ccc(N2CCNCC2)nc1Cl | substrate [+] |
| Cc1cc(=O)n(-c2ccccc2)n1C [ANTIPYRINE] | is not a substrate [-] |
| CN(C)CCC=C1c2ccccc2CCc2ccccc21 [AMITRIPTYLINE] | substrate [+] |
| O=C(O)c1ccccc1O [SALICYLIC ACID] | is not a substrate [-] |
| Cc1nc2n(c(=O)c1CCN1CCC(c3noc4cc(F)ccc34)CC1)CCCC2 [RISPERIDONE] | substrate [+] |
